pIC50: −log10 of the molar value. Activity calls are given as the source filed them. The calls are words filed in the database; no cut-off is given here.
Legend:
RAW264.7 [1] = assay: Antiinflammatory activity in mouse RAW264.7 cells assessed as inhibition of LPS-stimulated TNF-alpha production at 6.0 uM preincubated for 2 hrs followed by LPS stimulaton measured after 22 hrs by ELISA relative to control; format: functional
RAW264.7 [2] = assay: Antiinflammatory activity in mouse RAW264.7 cells assessed as inhibition of LPS-stimulated IL-6 production 6.0 uM preincubated for 2 hrs followed by LPS stimulaton measured after 22 hrs by ELISA relative to control; format: functional
RAW264.7 [3] = assay: Cytotoxicity against mouse RAW264.7 cells assessed as reduction in cell viability at 6.0 uM incubated for 24 hrs by MTT assay; format: cell-based; conditions: raw264.7, 24 h
QGY-7703 = assay: Cytotoxicity against human QGY7703 cells assessed as reduction in cell viability incubated for 24 hrs by MTT assay; format: functional, cell-based; conditions: QGY-7703, 24 h
[4] = Cytotoxicity against human HHL5 cells assessed as reduction in cell viability incubated for 24 hrs by MTT assay; format: cell-based; conditions: HHL-5, 24 h
HepG2 = assay: Cytotoxicity against human HepG2 cells assessed as reduction in cell viability incubated for 24 hrs by MTT assay; format: functional, cell-based; conditions: HepG2, 24 h
L02 = assay: Cytotoxicity against human LO2 cells assessed as reduction in cell viability incubated for 24 hrs by MTT assay; format: cell-based; conditions: L02, 24 h
SMMC-7721 = assay: Cytotoxicity against human SMMC7721 cells assessed as reduction in cell viability incubated for 24 hrs by MTT assay; format: functional, cell-based; conditions: SMMC-7721, 24 h

Compound | inhibition (RAW264.7 [1]) | inhibition (RAW264.7 [2]) | Activity (RAW264.7 [3]) | pIC50 (QGY-7703) | pIC50 [4] | pIC50 (HepG2) | pIC50 (L02) | pIC50 (SMMC-7721)
N#Cc1ccc(S(=O)(=O)N2C/C(=C\c3cccnc3)C(=O)/C(=C/c3ccccc3F)C2)cc1 | inactive | inactive | Non-Toxic | 4.80 | 4.81 | 5.18 | < 4.70 | 4.81
O=C1/C(=C/c2ccncc2)CN(S(=O)(=O)c2ccc(C(F)(F)F)cc2)C/C1=C\c1ccccc1F | Active | Active | Non-Toxic | 5.02 | 4.87 | 5.39 | 4.73 | 4.95
CC(=O)Nc1ccc(S(=O)(=O)N2C/C(=C\c3cccnc3)C(=O)/C(=C/c3ccccc3F)C2)cc1 | Active | Active | Non-Toxic | 5.02 | 4.85 | 5.34 | 4.81 | 4.96
O=C1/C(=C/c2cccnc2)CN(S(=O)(=O)c2ccc(Br)cc2)C/C1=C\c1ccccc1C(F)(F)F | Active | Active | Non-Toxic | 5.26 | 4.81 | 5.56 | 4.88 | 5.24
CC(=O)Nc1ccc(S(=O)(=O)N2C/C(=C\c3ccncc3)C(=O)/C(=C/c3ccccc3F)C2)cc1 | inactive | inactive | Non-Toxic | 4.86 | 4.85 | 4.93 | 4.91 | 4.87
CN1C/C(=C\c2cccnc2)C(=O)/C(=C/c2ccc(F)cc2Br)C1 | Active | Active | Non-Toxic | 5.58 | 4.95 | 4.89 | 4.84 | 4.68
O=C1/C(=C/c2ccncc2)CN(S(=O)(=O)c2ccc(F)cc2)C/C1=C\c1ccccc1F | inactive | inactive | Non-Toxic | 5.04 | 4.81 | 4.69 | 4.81 | < 4.70
O=C1/C(=C/c2ccccc2F)CNC/C1=C\c1ccccc1F |  |  |  | 5.30 | 4.84 | 5.48 | 4.99 | 5.06
O=C1/C(=C/c2ccncc2)CNC/C1=C\c1ccccc1F | inactive | inactive | Non-Toxic | 4.85 | 4.86 | 5.09 | 4.83 | 4.74
COc1cc(/C=C/C(=O)CC(=O)/C=C/c2ccc(O)c(OC)c2)ccc1O [CURCUMIN] |  |  |  | 4.62 | 4.62 | 4.76 | 4.64 | 4.78
O=C1/C(=C/c2ccncc2)CN(S(=O)(=O)c2ccccc2)C/C1=C\c1ccccc1C(F)(F)F |  |  | Non-Toxic | 5.21 | 4.92 | 5.15 | 4.91 | 5.18
O=C1/C(=C/c2ccncc2)CN(S(=O)(=O)c2ccc(Cl)cc2)C/C1=C\c1ccccc1C(F)(F)F |  |  | Non-Toxic | 4.90 | 4.96 | 5.14 | 4.83 | 5.26
Cc1ccc(S(=O)(=O)N2C/C(=C\c3ccncc3)C(=O)/C(=C/c3ccccc3C(F)(F)F)C2)cc1 |  |  | Non-Toxic | 5.29 | 4.80 | 5.33 | 4.89 | 5.25
N#Cc1ccc(S(=O)(=O)N2C/C(=C\c3ccncc3)C(=O)/C(=C/c3ccccc3C(F)(F)F)C2)cc1 |  |  | Non-Toxic | 5.20 | 4.71 | 5.23 | 4.76 | 5.02
O=C1/C(=C/c2ccncc2)CN(S(=O)(=O)c2ccc([N+](=O)[O-])cc2)C/C1=C\c1ccccc1C(F)(F)F |  |  | Non-Toxic | 5.01 | < 4.70 | 4.87 | 4.73 | < 4.70
CC(=O)Nc1ccc(S(=O)(=O)N2C/C(=C\c3ccncc3)C(=O)/C(=C/c3ccccc3C(F)(F)F)C2)cc1 |  |  | Non-Toxic | 5.25 | 5.05 | 5.32 | 4.99 | 5.24
O=C1/C(=C/c2ccncc2)CN(S(=O)(=O)c2ccc(F)cc2)C/C1=C\c1ccccc1C(F)(F)F |  |  | Non-Toxic | 5.11 | 4.92 | 5.40 | 4.89 | 5.03

Source: ChEMBL document CHEMBL4339189, “Dissymmetric pyridyl-substituted 3,5-bis(arylidene)-4-piperidones as anti-hepatoma agents by inhibiting NF-κB pathway activation” (Eur J Med Chem, 2019)
